Data from article PMC12523838, “Inhibition of Xanthine Oxidase by Four Phenolic Acids: Kinetic, Spectroscopic, Molecular Simulation, and Cellular Insights” (Foods, 2025).
Several values for one entry are separate records, joined by “and”; a condition that tells them apart may be missing. Equal values may be shown once. Entries after “also recorded” stand apart in the source; their conditions may differ. Read-outs that look alike come from different tables or passages of the source.

Experiments:
[1] = Reducing power (potassium ferricyanide, absorbance at 700 nm); settings: concentration at which absorbance at 700 nm reached 0.5
Method: The mixture was incubated at 50 °C for 20 min, after which 0.5 mL of 10% (,w/v) trichloroacetic acid solution was added. Following centrifugation at 3000 rpm for 10 min, 0.5 mL of the supernatant was transferred to a new test tube, and 0.5 mL of distilled water along with 0.1 mL of 0.1% (,w/v) ferric chloride solution were added. After 10 min of incubation, absorbance was measured at 700 nm. Higher absorbance values correspond to stronger reducing activity. The IC50 value was defined as the concentration at which the absorbance reached 0.5.

[2] = ABTS radical scavenging activity
Method: The modified ABTS assay was carried out as described by Foss et al. with appropriate modifications. A 7 mM ABTS solution was mixed in equal volumes with 2.45 mM potassium persulfate and kept in the dark at room temperature for 12–16 h to generate the ABTS•^+ stock solution. […] Absorbance was recorded at 734 nm. PBS served as the blank, while Trolox was used as the standard. The results were reported as IC50 value, representing the concentration of sample required to scavenge 50% of ABTS•^+ radicals.

[3] = DPPH radical scavenging activity
Method: The DPPH• scavenging capacity was evaluated following the method of Nakbi et al.. […] The mixture was vortexed and incubated at room temperature for 30 min. Absorbance was then measured at 517 nm and recorded as Ai. For the control experiment, 10 μL of anhydrous ethanol replaced the sample soluition, while all other steps were identical, and the absorbance was recorded as Ac. To correct for background, 10 μL of sample solution was mixed with 240 μL of anhydrous ethanol alone, and the absorbance at 517 nm was recorded as A0.

[4] = Oxygen radical absorption capacity (ORAC)
Method: The ORAC analysis method was adapted from Wang et al.with adjustments. The trial was conducted in 75 mM PBS (pH 7.4). […] AAPH was freshly dissolved in PBS at 38.25 mM and maintained in an ice-water bath. […] The reaction was initiated by adding 100 μL of AAPH solution, and fluorescence intensity was recorded every minute for 100 min to generate a fluorescence decay curve (Thermo Fisher Scientific, Waltham, MA, USA). Trolox served as the reference standard, while PBS functioned as the blank. ORAC values were determined from the net area under the fluorescence decay curve and expressed as Trolox equivalents per sample [22].

XOD (xanthine oxidase) [5] = target: T1, XOD (xanthine oxidase) (Bos taurus, UniProt P80457); experiment: XOD inhibitory activity in vitro (enzymatic reaction, HPLC of UA); assay type: biochemical, bovine
T1 sequence (P80457 whole entry): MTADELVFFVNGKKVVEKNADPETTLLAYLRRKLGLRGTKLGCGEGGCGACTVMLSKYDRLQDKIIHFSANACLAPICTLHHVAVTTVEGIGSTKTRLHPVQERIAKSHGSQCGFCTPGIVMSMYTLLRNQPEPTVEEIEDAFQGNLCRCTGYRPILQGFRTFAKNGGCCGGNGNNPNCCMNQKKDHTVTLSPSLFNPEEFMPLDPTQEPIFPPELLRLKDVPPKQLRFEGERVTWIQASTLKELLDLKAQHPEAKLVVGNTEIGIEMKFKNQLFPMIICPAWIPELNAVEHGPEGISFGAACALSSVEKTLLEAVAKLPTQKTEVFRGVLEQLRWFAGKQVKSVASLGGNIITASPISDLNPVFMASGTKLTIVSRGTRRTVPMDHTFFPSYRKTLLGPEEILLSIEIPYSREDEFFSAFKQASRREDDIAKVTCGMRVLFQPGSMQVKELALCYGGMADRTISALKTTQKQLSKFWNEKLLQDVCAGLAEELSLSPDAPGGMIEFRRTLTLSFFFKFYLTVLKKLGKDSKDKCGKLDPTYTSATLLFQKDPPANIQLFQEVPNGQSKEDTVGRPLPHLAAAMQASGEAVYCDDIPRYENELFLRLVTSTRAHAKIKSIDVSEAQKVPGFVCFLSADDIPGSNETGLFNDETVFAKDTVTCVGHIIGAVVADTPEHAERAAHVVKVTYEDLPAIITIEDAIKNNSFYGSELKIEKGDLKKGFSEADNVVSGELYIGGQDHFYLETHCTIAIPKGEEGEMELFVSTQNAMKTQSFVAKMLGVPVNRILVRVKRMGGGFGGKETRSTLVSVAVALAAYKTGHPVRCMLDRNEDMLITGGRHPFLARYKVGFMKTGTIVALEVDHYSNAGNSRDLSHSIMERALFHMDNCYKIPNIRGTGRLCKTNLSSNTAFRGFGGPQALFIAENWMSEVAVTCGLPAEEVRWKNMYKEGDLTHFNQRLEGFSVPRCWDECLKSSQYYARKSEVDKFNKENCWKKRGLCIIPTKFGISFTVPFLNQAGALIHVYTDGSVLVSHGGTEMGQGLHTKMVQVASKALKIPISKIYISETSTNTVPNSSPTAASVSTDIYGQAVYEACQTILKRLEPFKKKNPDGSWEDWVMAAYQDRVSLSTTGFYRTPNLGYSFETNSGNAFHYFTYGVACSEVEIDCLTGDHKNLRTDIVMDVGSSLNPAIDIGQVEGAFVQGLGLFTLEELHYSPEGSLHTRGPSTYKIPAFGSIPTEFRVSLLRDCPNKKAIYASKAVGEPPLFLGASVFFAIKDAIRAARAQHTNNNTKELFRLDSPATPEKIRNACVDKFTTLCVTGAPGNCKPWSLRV
Method: The XOD inhibitory activity of the samples was assessed using an enzymatic reaction followed by HPLC analysis. Briefly, 50 μL of XOD (0.05 U/mL in 200 mM PBS, pH 7.5) was combined with either 50 μL of PBS (control) or 50 μL of the sample solution. The reaction mixture was equilibrated at 37 °C for 5 min, after which 150 μL of 0.40 mM xanthine was added. The reaction proceeded at 37 °C for 10 min and was terminated by adding 80 μL of 1.0 M HCl.
UA production was measured using an HPLC system (Agilent Technologies, Santa Clara, CA, USA) equipped with a UV detector. The reaction solution was diluted 20-fold and filtered, and 10 μL of the filtrate was injected into an Agilent Eclipse XDB-C18 column (150 × 4.6 mm, 5 μm). The mobile phase, consisting of 10% methanol and 90% 10 mM sodium phosphate buffer (pH 5.5), was delivered isocratically at 1.0 mL/min. UA was detected at 292 nm with the column maintained at 25 °C. Concentrations were calculated based on an external calibration curve. XOD inhibition was expressed as the percentage reduction of UA formation, and the IC50 value was defined as the sample concentration at which 50% inhibition was achieved.

XOD (xanthine oxidase) [6] = target: T1, XOD (xanthine oxidase); experiment: Kinetic mechanisms of XOD inhibition (Lineweaver-Burk); assay type: biochemical, bovine; settings: for Inhibition types: Lineweaver-Burk plots; for Kis (inhibition constant for the XOD-substrate complex): mixed inhibition model; for Ki: read-out: Ki (inhibition constant for XOD)
Method: The inhibition kinetics of XOD by FA, CA, GA, and PA were evaluated using Lineweaver–Burk plots. The inhibitor concentrations were as follows: FA (0, 2.0, 3.0, and 4.0 mM), CA (0, 1.0, 2.0, and 4.0 mM), GA (0.2, 1.0, 2.0, and 4.0 mM), and PA (1.0, 2.0, 5.0, and 10.0 mM). The substrate (xanthine) concentrations were fixed at 0.1, 0.2, 0.3, and 0.4 mM. XOD (0.05 U/mL) was used, and the initial reaction velocity (v) was calculated based on UA formation.
Lineweaver–Burk plots were established by plotting 1/v against 1/[s] for each inhibitor concentration. Four linear regressions were obtained for each inhibitor, enabling the determination of the inhibition type. […] The slope and intercept of the Lineweaver–Burk plot were plotted against inhibitor concentration [I], yielding the following equations: (3) and (4).
V denotes the reaction rate, Vmax the maximum rate, Km the Michaelis constant, Ki the inhibition constant for XOD, and Kis the inhibition constant for the XOD–substrate complex. Decreased Ki or Kis values indicate stronger inhibitory activity.

XOD [7] = target: T2, XOD (Bos taurus, UniProt P80457); experiment: Fluorescence quenching of XOD (Stern-Volmer); assay type: binding, bovine; settings: for Kq (quenching rate constant) / n (number of binding sites): 298 K
T2 construct: XOD (7.2 units/mL, derived from bovine milk); purchased Sigma-Aldrich (St. Louis, MO, USA); host or cells: bovine milk
T2 sequence (P80457 whole entry): as above
Method: In brief, 100 µL of XOD (0.05 U/mL in 200 mM PBS, pH 7.5) was combined with 100 µL of each phenolic acid at final concentrations of 0, 50, 100, 200, 300, 400, and 500 μM. The mixtures were incubated at 25 °C for 10 min, and fluorescence emission spectra were recorded using a microplate reader (Thermo Fisher Scientific, Waltham, MA, USA) with an excitation wavelength of 280 nm and an emission collected from 310 to 500 nm. PBS was used as the blank, and background fluorescence was subtracted to ensure accuracy.
The binding mechanisms of FA, CA, GA, and PA to XOD were investigated using the fluorescence quenching method at seven different concentrations.
F0 and F denote the fluorescence intensities of XOD in the absence and presence of quenchers (FA, CA, GA, and PA), respectively. The quenching constant (Ksv) is, obtained from the linear fitting of F0/F against the quencher concentration [Q]. The quenching rate constant is expressed as Kq, while τ0 represents the average lifetime of the fluorophore in the absence of a quencher (typically 10^−9 s). The effective quenching constant of the accessible fluorophore is designated as Ka, and fa corresponds to the fraction of fluorescence accessible to quenching. The binding constant is indicated by K, and n stands for the number of binding sites.

XOD [8] = target: T2, XOD; experiment: CD spectroscopy, secondary structure of XOD; set-up: species or system bovine; settings: for α-helix content of XOD: XOD with phenolic acid (300 μM solution, equal volumes), XOD alone 36.70; for β-sheet content of XOD: XOD with phenolic acid, XOD alone 13.87
Method: CD spectroscopy was employed to determine the conformational structure of XOD in the presence of phenolic compounds. Spectra were recorded in the wavelength range of 190–250 nm using a scanning rate of 100 nm/min, with continuous nitrogen purging at room temperature. XOD was prepared at 2.0 mg/mL in PBS (200 mM, pH 7.5) and then diluted 6-fold to 0.33 mg/mL. Phenolic compounds were dissolved in PBS at 300 μM, and equal volumes of XOD and phenolic solutions were joined in equal amounts. CD spectra of the mixtures were recorded with the PBS as the background, and secondary structure content of XOD was analyzed employing the SELCON3 algorithm on the DichroWeb server (http://dichroweb.cryst.bbk.ac.uk/html/home.shtml).
The CONTIN program was used to determine the secondary structure composition of XOD (Figure 3B).

BRL-3a cells = experiment: UA levels in xanthine-treated BRL-3A cells; assay type: cell-based; settings: vs model group
Method: UA levels were measured following the method of Liu et al.. […] After 48 h of incubation, supernatants were collected, spun at 1000× g for 5 min, then the UA level was quantified with the UA assay kit.

[9] = XOD 0.05 U/mL, 0.40 mM xanthine, 37 °C, pH 7.5, read-out: IC50 of XOD inhibitory activity

Row | SMILES | Reducing Power [1] | IC50 [2] [µM] | IC50 [3] [µM] | ORAC Value ([4]; Trolox equivalents) | IC50 (XOD (xanthine oxidase) [5]; [9]) [µM] | Inhibition types (XOD (xanthine oxidase) [6]) | Vmax (XOD (xanthine oxidase) [6]; inhibitor 2.0 mM) [mM/min] | Vmax (XOD (xanthine oxidase) [6]; inhibitor 4.0 mM) [mM/min] | Kis (inhibition constant for the XOD-substrate complex) (XOD (xanthine oxidase) [6]) [mM] | Ki (XOD (xanthine oxidase) [6]) [µM] | Kd (XOD [7]) [µM] | Kq (quenching rate constant) (XOD [7]) | n (number of binding sites) (XOD [7]) | α-helix content of XOD (XOD [8]) [%] | β-sheet content of XOD (XOD [8]) [%] | Vmax (XOD (xanthine oxidase) [6]; inhibitor 1.0 mM) [mM/min] | further results
1 | COc1cc(/C=C/C(=O)O)ccc1O [Ferulic acid, ferulic acid] | 0.74 ± 0.05 c mM | 300 | 800 ± 30 | 7.99 ± 0.24 c mmol TE/mmol | 2040 ± 110 | Mixed inhibition | 1.39 | 0.95 | 1.78 | 890 | 7140 | 0.16 ± 0.01 1012 L*mol-1*s-1 | 0.70 ± 0.01 | 36.37 | 14.07 |  | Inhibition types (XOD (xanthine oxidase) [6]; listed as FA): mixed inhibition with competitive dominance; Vmax (XOD (xanthine oxidase) [6]; inhibitor 3.0 mM): 1.04 mM/min; UA levels (BRL-3a cells; 25–100 μM, 1 mM xanthine, 48 h, p < 0.05, listed as FA): significantly reduced uric acid (UA) concentration; also recorded: significantly reduced UA levels
2 | O=C(O)c1cc(O)c(O)c(O)c1 [Gallic acid, gallic acid] | 0.20 ± 0.01 mM·days | 20 | 180 ± 10 | 20.12 ± 0.74 a mmol TE/mmol |  | Mixed inhibition | 4.72 | 3.61 | 3.05 |  | 139 | 0.26 ± 0.01 1012 L*mol-1*s-1 | 1.13 ± 0.00 | 37.33 | 13.30 | 4.83 | Reducing Power ([1]; listed as GA): 0.20 ± 0.01 mM; ORAC Value [4]: 20.12 ± 0.74 mM; IC50 (XOD (xanthine oxidase) [5]): 870 ± 30 µM; inhibitory efficacy of GA relative to PA (XOD IC50) (XOD (xanthine oxidase) [5]; GA vs PA): approximately 14.62 fold; Inhibition types (XOD (xanthine oxidase) [6]; listed as GA): mixed but predominantly non-competitive inhibition; Vmax (XOD (xanthine oxidase) [6]; inhibitor 0.2 mM): 4.90 mM/min; UA levels (BRL-3a cells; 25 μM, 1 mM xanthine, 48 h, listed as GA): significantly reduced UA levels
3 | O=C(O)c1ccc(O)c(O)c1 [Protocatechuic acid, protocatechuic acid] | 0.12 ± 0.01 mM·days | 400 ± 20 | 620 | 6.63 ± 0.09 d mmol TE/mmol | 12700 ± 670 | Mixed inhibition | 0.72 |  | 17.76 | 3210 | 719 | 0.18 ± 0.01 1012 L*mol-1*s-1 | 0.98 ± 0.02 | 35.77 | 14.47 | 0.79 | Reducing Power ([1]; listed as PA): 0.12 ± 0.01 mM; Inhibition types (XOD (xanthine oxidase) [6]; listed as PA): mixed inhibition with competitive dominance; Vmax (XOD (xanthine oxidase) [6]; inhibitor 5.0 mM): 0.69 mM/min; Vmax (XOD (xanthine oxidase) [6]; inhibitor 10.0 mM): 0.68 mM/min; UA levels (BRL-3a cells; 25–100 μM, 1 mM xanthine, 48 h, p < 0.05, listed as PA): significantly reduced uric acid (UA) concentration; also recorded: significantly reduced UA levels
4 | Cc1c(C)c2c(c(C)c1O)CCC(C)(C(=O)O)O2 (stereo not drawn) [Trolox, 6-Hydroxy-2,5,7,8-tetramethylchromane-2-carboxylic acid, reference compound] | 2.62 ± 0.20 mM and 2.62 ± 0.20 b (Trolox) mM | 3410 ± 120 | 680 ± 10 |  |  |  |  |  |  |  |  |  |  |  |  |  | 
5 | Oc1ncnc2[nH]ncc12 [allopurinol, reference compound] |  |  |  |  |  |  |  |  |  |  |  |  |  |  |  |  | UA levels (BRL-3a cells; positive control, p < 0.05): significantly lower UA levels
6 | O=C(O)/C=C/c1ccc(O)cc1 [p-Coumaric acid, p-coumaric acid] | 6.98 ± 0.13 a mM | 230 ± 10 | 19400 ± 1240 | 9.64 ± 0.27 b mmol TE/mmol | 7610 ± 300 | Mixed inhibition | 0.74 | 0.68 | 6.04 | 1420 | 99.9 ± 4.49 | 0.91 ± 0.01 1012 L*mol-1*s-1 | 1.01 ± 0.00 | 36.20 | 14.70 | 0.79 | Inhibition types (XOD (xanthine oxidase) [6]; listed as CA): mixed inhibition with competitive dominance; UA levels (BRL-3a cells; 25–100 μM, 1 mM xanthine, 48 h, p < 0.05, listed as CA): significantly reduced uric acid (UA) concentration; also recorded: significantly reduced UA levels
